According to patent publication US10760052B2, “Method of inhibiting tau phosphorylation” (priority 2012, dated 2020):
pKd: −log10 of the molar value.

Tests used:
[1] = test system: α7nAChR (Aβ42-α7nAChR interaction); assay: Aβ42 affinity for α7nAChR in biotinylated synaptic membranes from postmortem frontal cortices; assay type: binding, human
Text: FIG. 27 in two panels illustrates that Compound C0105 reduces affinity of the Aβ42-α7nAChR interaction. […] Data are means±SEM. n=11 for postmortem control tissue; n=6 for SK-N-MC cells.

α7nAChR-FLNA complex = target: T1, α7nAChR-FLNA complex (Rattus norvegicus, UniProt A0A8I5ZV49); assay: Aβ42-induced α7nAChR-FLNA association in rat frontal cortical synaptosomes (co-immunoprecipitation/Western blot); assay type: cell-based
T1 construct: from tissue; host or cells: rat frontal cortex synaptosomes
Text: The α7nAChR-FLNA complexes in the solubilized synaptosomes were immunoprecipitated with immobilized anti-FLNA and the α7nAChR and FLNA levels in the anti-FLNA immunoprecipitates determined by Western blotting (FIG. 2A) and quantified by densitometry (FIG. 2B). n=3. […] The letter designation “M” that accompanies many of the “C-series” compounds is omitted from FIG. 2, the remaining figures and most discussions of the figures and compounds hereinafter for ease in expression. Structural formulas of the compounds used in this and the other figures are provided hereinafter. […]

[2] = test system: tau protein phosphorylated at S202, T231 and T181; assay: Aβ42-induced tau phosphorylation in rat frontal cortical synaptosomes; assay type: cell-based
Method: FIG. 4 in four panels as FIGS. 4A-4D, illustrates that FLNA-binding compounds reduce tau phosphorylation at all three phosphorylation sites. […] The three phosphoepitopes of tau were detected in immunoprecipitates using specific antibodies. […] Immunoprecipitates were determined by Western blotting (FIGS. 4A-4C) and quantified by densitometry (FIG. 4D).
(§1) FIG. 42, also in two panels, FIGS. 42A and 42B, illustrates that FLNA-binding compounds reduce tau phosphorylation at all three phosphorylation sites using the compounds and concentrations of FIG. 41 using immunoprecipitation and Western blotting. […] The three phosphoepitopes of tau were detected in immunoprecipitates using specific antibodies.
as §1, with “44,” for “42,”, “FIG. 44A” for “FIGS. 42A”, “FIG. 44B,” for “42B,”, “43” for “41”, “antibodies. Aβ42 strongly promotes tau phosphorylation at all three sites.” for “antibodies.”
as §1, with “46,” for “42,”, “FIG. 46A” for “FIGS. 42A”, “FIG. 46B,” for “42B,”, “45” for “41”, “antibodies. Aβ42 strongly promotes tau phosphorylation at all three sites.” for “antibodies.”
The three primary phosphorylation sites on tau protein were examined for their phosphorylation levels compared to total tau protein content. Tau, phosphorylated at these three sites, is a constituent of NFTs. Consistent with effects on FLNA-α7nAChR association, and ERK2 activation, all of the FLNA-binding compounds assayed, with 10 minute pre-incubation, decreased Aβ42-induced phosphorylation of tau at all three sites (FIG. 4).

[3] = target: T2, FLNA-α7nAChR/TLR4 and Aβ42-α7nAChR complexes (Homo sapiens, UniProt P21333); assay: FLNA-α7nAChR/TLR4 and Aβ42-α7nAChR associations in AD and Aβ42-treated control lymphocytes; assay type: cell-based; details: 1 nM, 30 minutes
T2 construct: endogenous in cells; host or cells: lymphocytes of AD patients and control subjects
Method: Because lymphocytes contain α7nAChR and TLR4, whether the associations of these receptors with FLNA are increased in the lymphocytes of AD patients and whether Compound C0105 treatment ex vivo could disrupt these associations were assessed. Also assayed was the effect of Compound C0105 on Aβ42-α7nAChR complexes in AD lymphocytes and Aβ42-treated lymphocytes from age-matched control subjects.

[4] = test system: voltage-gated Ca2+ channel mediated Ca2+ influx; assay type: cell-based, rat; details: slice cultures
TLR4-FLNA complex [5] = target: T3, TLR4-FLNA complex (Mus musculus, UniProt Q8BTM8); assay: ICV Aβ42 infusion mouse model: FLNA association with TLR4; assay type: in vivo; details: 10 mg/kg twice daily; prefrontal cortex and hippocampus
T3 construct: from tissue; host or cells: synaptosomes from prefrontal cortex and hippocampus of treated E129 mice
Method: . The anti-FLNA immunocomplexes were obtained by centrifugation, washed and dissociated using antigen elution buffer. […] The levels of FLNA-associated α7nAChRs and TLR4s were assessed by Western blotting and the blot stripped and re-probed for FLNA for immunoprecipitation/loading control.

IL-6, TNF-α and IL-1β = assay: ICV Aβ42 infusion mouse model: cytokine levels (fluorescence ELISA); assay type: in vivo
Method: Following centrifugation, the resultant lysate was then dilute with 500 μl (total volume 600 μl) and used as the source of cytokines.
Plates were washed 3 times with ice-cold 50 mM Tris HCl (pH 7.4) and incubated at 30° C. with 100 μl of lysate derived from the above mentioned tissues for 1 hour.
Plates were washed 3 times with ice-cold 50 mM Tris HCl (pH 7.4) and incubated at 30° C. with 0.5 μg/well un-conjugated rabbit anti-TNF-α, anti-IL-6 and anti-IL-1β for 1 hour. After two washes with 50 mM Tris HCl (pH 7.4), each well was incubated in 0.5 μg/well FITC-conjugated anti-rabbit IgG (human and mouse absorbed) for 1 hour at 30° C. Plates were washed twice with 200 μl ice-cold Tris HCl, pH 7.4 and the residual FITC signals were determined by multimode plate reader, DTX880 (Beckman). Each lysate was surveyed twice.

NFT and Aβ42 aggregates = assay: ICV Aβ42 infusion mouse model: immunohistochemistry of NFT and Aβ42 aggregates; assay type: in vivo; details: 10 mg/kg twice daily
Method: One section was immunostained with anti-NFT or -PHF.
Brain tissues were fixed at 4° C. in 0.15 M phosphate-buffered 10% formalin, pH 7.4 for 2 weeks, paraffin embedded, serially sectioned at 5 μm, and processed for brightfield immunohistochemistry as described. The […] but not Aβ42-1. Specimens were examined using a Nikon FXA microscope with a Princeton Instruments CCD camera and recorded digitally.
The correlations between the amount of NFT/PHF immunoreactivity and Aβ42-positive material accumulated within mature neurons were also determined.

TLR4-FLNA complex [6] = target: T4, TLR4-FLNA complex (Homo sapiens, UniProt P21333); assay: Postmortem human frontal cortex: TLR4-FLNA association; assay type: cell-based; details: AD and Aβ42-treated control tissue; 0.1 or 1 nM
T4 construct: from tissue; host or cells: postmortem frontal cortex slices / synaptosomes (AD and control subjects)
Method: (§2) Postmortem frontal cortex tissues were gradually thawed (from −80° C. to −20° C.) and were sliced using a chilled McIlwain tissue chopper (200 μm×200 μm×3 mm). […] Following two additional washes with 1 ml of ice-cold K-R, brain slices were suspended in 1 ml of K-R.
(§3) Incubation continued for 1 hour in the dark to minimize light destruction of the test agents. […] Reaction was terminated by the addition of 1.5 ml of ice-cold Ca^2+-free K-R. Tissue slices were harvested by a brief centrifugation and used as the tissue sources for various assays.

Aβ42-α7nAChR complexes = assay: Postmortem human frontal cortex: Aβ42-α7nAChR complexes; assay type: cell-based; details: AD and Aβ42-treated control tissue; 0.1 and 1 nM
Method: as §2, §3

T1 sequence (A0A8I5ZV49 entry or part of it, one chain of several): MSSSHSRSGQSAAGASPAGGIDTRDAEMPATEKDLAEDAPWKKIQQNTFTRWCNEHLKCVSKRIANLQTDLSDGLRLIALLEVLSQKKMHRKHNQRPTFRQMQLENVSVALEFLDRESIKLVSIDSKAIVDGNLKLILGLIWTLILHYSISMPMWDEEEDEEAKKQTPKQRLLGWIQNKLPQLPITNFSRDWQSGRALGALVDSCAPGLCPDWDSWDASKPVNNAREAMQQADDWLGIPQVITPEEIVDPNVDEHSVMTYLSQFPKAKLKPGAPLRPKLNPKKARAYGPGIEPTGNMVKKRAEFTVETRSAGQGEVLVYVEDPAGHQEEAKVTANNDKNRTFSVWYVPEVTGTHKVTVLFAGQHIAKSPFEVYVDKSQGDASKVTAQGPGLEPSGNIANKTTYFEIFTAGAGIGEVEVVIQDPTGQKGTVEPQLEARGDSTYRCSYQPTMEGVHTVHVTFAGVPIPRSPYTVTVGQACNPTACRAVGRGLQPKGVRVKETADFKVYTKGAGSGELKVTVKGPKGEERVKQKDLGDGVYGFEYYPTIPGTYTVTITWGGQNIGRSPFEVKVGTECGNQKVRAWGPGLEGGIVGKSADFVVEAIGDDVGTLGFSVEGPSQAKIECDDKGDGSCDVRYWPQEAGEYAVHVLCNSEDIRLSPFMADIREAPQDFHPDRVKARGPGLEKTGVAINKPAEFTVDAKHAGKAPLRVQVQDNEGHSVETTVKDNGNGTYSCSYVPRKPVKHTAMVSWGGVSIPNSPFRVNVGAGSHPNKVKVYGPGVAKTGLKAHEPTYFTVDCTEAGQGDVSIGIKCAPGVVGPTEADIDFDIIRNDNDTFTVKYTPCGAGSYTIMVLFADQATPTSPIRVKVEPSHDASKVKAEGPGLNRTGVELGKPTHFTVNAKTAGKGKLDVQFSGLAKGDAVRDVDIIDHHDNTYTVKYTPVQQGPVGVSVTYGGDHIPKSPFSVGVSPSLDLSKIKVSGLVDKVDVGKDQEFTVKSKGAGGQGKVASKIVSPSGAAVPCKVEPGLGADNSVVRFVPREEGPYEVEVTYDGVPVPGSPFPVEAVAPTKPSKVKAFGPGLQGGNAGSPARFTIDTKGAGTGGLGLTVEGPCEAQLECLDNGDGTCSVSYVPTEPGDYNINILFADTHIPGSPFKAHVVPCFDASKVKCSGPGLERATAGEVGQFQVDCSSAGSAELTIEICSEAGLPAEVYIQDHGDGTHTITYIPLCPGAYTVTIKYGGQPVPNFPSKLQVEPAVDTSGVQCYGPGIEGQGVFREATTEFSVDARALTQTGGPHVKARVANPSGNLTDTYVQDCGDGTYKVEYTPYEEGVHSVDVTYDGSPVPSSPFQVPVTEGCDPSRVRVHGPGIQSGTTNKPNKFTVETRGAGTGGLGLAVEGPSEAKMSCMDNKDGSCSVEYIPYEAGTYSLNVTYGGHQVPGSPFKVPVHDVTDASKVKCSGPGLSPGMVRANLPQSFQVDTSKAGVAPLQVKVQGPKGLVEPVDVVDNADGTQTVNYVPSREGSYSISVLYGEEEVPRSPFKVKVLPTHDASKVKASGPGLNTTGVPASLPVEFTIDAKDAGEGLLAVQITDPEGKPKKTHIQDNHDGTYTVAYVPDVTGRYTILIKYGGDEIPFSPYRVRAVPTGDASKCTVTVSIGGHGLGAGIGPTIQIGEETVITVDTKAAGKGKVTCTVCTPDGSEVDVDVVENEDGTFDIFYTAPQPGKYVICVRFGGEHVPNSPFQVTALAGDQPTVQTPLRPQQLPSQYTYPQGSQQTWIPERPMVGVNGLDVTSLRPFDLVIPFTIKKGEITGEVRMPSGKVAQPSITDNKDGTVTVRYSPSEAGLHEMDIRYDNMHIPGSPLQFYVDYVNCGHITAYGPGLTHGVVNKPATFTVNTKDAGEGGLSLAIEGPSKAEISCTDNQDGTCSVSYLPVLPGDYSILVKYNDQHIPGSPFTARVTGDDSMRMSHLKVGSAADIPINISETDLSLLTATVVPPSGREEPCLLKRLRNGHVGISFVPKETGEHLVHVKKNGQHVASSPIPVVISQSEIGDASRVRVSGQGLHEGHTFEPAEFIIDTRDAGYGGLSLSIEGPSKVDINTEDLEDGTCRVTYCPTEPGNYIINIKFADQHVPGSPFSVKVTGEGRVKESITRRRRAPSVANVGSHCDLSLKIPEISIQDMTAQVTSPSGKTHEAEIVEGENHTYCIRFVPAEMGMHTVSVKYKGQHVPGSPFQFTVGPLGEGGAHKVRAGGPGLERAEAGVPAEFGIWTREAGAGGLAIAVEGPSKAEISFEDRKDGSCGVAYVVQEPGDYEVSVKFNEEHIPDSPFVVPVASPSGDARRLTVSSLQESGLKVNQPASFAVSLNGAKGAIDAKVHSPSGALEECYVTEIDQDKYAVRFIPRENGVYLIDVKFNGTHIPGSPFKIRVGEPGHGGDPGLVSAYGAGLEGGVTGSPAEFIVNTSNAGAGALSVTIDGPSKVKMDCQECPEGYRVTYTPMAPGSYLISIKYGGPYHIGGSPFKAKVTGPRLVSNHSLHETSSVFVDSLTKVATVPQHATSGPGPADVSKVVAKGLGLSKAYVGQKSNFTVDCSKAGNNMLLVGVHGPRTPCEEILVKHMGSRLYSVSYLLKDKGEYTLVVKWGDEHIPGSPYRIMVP

CN1CCC2(CC1)NCC(=O)N2Cc1ccccc1 [Compound C0105]
Reduction of affinity of the Aβ42-α7nAChR interaction ([1]; FIG. 27: postmortem tissue and SK-N-MC cells): 1,000-10,000 fold | Reduction of Aβ42 binding affinity for α7nAChR ([1]; postmortem control tissue, biotinylated synaptic membranes, n=11): 1000 fold | pKd ([1]; read-out: Aβ42 binding affinity for α7nAChR after Compound C0105 incubation, postmortem control tissue): 7.80 | α7nAChR-FLNA association (ratio α7nAChR/FLNA) (α7nAChR-FLNA complex; 1 or 10 nM compound, simultaneously or 10 minutes prior to Aβ42 (0.1 μM)): statistically different from Aβ42 alone | α7nAChR-FLNA association (α7nAChR-FLNA complex; simultaneous administration with Aβ42): markedly reduced this coupling | Aβ42-induced tau phosphorylation at S202, T231 and T181 ([2]; 1 or 10 nM compound, simultaneously or 10-minute pretreatment, Aβ42 0.1 μM): reduced this phosphorylation at both concentrations | Aβ42-induced phosphorylation of tau ([2]; simultaneous administration): reduced tau phosphorylation with simultaneous administration | FLNA associations with α7nAChR and TLR4 in lymphocytes [3]: significantly reduced | Aβ42-induced reduction of K+-evoked calcium influx [4]: completely reversed by 1 and 10 nM | Aβ42-induced increase in FLNA association with TLR4 (TLR4-FLNA complex [5]): reduced Aβ42-induced increases in FLNA associations with both α7nAChR and TLR4 | Aβ42-induced IL-6 production (IL-6, TNF-α and IL-1β; 10 mg/kg twice daily): completely abolished | Suppression of IL-1β level (IL-6, TNF-α and IL-1β; 10 mg/kg twice daily): 80% | Suppression of TNF-α level (IL-6, TNF-α and IL-1β; 10 mg/kg twice daily): 86% | Decrease of levels of IL-6, TNF-α and IL-1 (IL-6, TNF-α and IL-1β; mice receiving C0105): 80-100% | Amyloid deposits (IHC, FCX and HP) (NFT and Aβ42 aggregates): prevents | NFT formation (IHC, FCX and HP) (NFT and Aβ42 aggregates): prevents | FLNA association with TLR4 (TLR4-FLNA complex [6]): reduces Aβ42-induced FLNA association with α7nAChR and TLR4 | Aβ42-α7nAChR complexes (Aβ42-α7nAChR complexes): reduces Aβ42-α7nAChR complexes
